Experimental data: article PMC6755085, “Cyclic oligoadenylate signalling mediates Mycobacterium tuberculosis CRISPR defence” (Nucleic Acids Research, 2019)

Molecular target: T1, TsuCsx1 (Thioalkalivibrio sulfidiphilus, UniProt B8GSI1)
T1 construct: gene Tgr7_1803; full-length; N-terminal His8 fusion (pEV5HisTEV), no tag cleavage described; synthetic gene; E. coli C43; dimer
Test: activation of cleavage of […]-labelled RNA, denaturing PAGE
Format: biochemical
Conditions: synthetic cA4, 1 µM; 0.5 µM TsuCsx1 dimer; 20 mM Tris-HCl, 150 mM NaCl, 1 mM DTT, pH 7.5; 35 °C; activator

T1 sequence (B8GSI1 entry or part of it): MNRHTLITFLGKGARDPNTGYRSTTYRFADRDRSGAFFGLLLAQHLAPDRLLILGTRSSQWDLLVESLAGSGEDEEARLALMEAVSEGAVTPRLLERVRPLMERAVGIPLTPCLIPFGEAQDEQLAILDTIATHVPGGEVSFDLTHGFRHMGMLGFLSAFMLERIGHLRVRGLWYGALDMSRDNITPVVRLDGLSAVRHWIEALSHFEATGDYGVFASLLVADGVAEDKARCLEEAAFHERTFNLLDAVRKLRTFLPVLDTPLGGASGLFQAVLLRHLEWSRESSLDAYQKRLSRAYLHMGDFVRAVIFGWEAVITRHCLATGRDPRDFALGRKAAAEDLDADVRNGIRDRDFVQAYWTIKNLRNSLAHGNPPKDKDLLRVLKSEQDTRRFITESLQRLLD

Structure (SMILES): Nc1ncnc2c1ncn2[C@@H]1O[C@@H]2COP(=O)(O)O[C@H]3[C@@H](O)[C@H](n4cnc5c(N)ncnc54)O[C@@H]3COP(=O)(O)O[C@H]3[C@@H](O)[C@H](n4cnc5c(N)ncnc54)O[C@@H]3COP(=O)(O)O[C@H]3[C@@H](O)[C@H](n4cnc5c(N)ncnc54)O[C@@H]3COP(=O)(O)O[C@H]2[C@H]1O [cA4]
- activation of cleavage of 32P-labelled RNA, denaturing PAGE: TsuCsx1 was strongly activated by synthetic cA4 but not by cA6
